“And” between values parts separate entries of the source, which are not always exact repeats. Identical values can stand only once.
Row | melting point | Compound
1 | 243 °C | Cc1cc(NS(=O)(=O)c2ccc(N)cc2)nc(C)n1 [sulfisomidine]
2 | 185 °C | CS(=O)c1ccc(cc1)/C=C3c2ccc(F)cc2C(CC(=O)O)=C3C (centres undefined) [sulindac]
3 | 184 °C | CC1=C(CC(=O)O)c2cc(F)ccc2/C1=C\c1ccc(S(C)=O)cc1 (centres undefined) [sulindac]
4 | 179 °C | CCN1CCCC1CNC(=O)c1cc(S(N)(=O)=O)ccc1OC (centres undefined) [sulpiride]
5 | -26 °C | CC(C)(C)Cl [tert-butyl chloride]
6 | -58 °C | CC(C)(C)c1ccccc1 [tert-butylbenzene]
7 | -85 °C | CCO[Si](OCC)(OCC)OCC [tetraethoxysilane]
8 | -82 °C | CC[Si](CC)(CC)CC [tetraethylsilane]
9 | 156 °C | O=C(O)c1c(F)c(F)c(F)c(F)c1C(=O)O [tetrafluorophthalic acid]
10 | -108 °C | C1CCOC1 [tetrahydrofuran]
11 | 147 °C | OB(O)c1cccc2c1Sc1ccccc1S2 [thianthrene-1-boronic acid]
12 | 130 °C | OB(O)c1cccs1 [thiophene-2-boronic acid]
13 | 139 °C | O=C(O)c1ccsc1 [thiophene-3-carboxylic acid]
14 | 177 °C | NC(N)=S [thiourea]
15 | 212 °C | O=c1c2ccccc2sc2ccccc12 [thioxanthen-9-one]
16 | 188 °C | Cc1cn([C@H]2C[C@H](O)[C@@H](CO)O2)c(=O)[nH]c1=O [thymidine]
17 | 51 °C | Cc1ccc(C(C)C)c(O)c1 [thymol]
18 | 64 °C | C/C=C(\C)C(=O)O [tiglic acid]
19 | 113 °C | OC/C(Br)=C(\Br)CO [trans-2,3-dibromo-2-butene-1,4-diol]
20 | -88 °C | C/C=C/CCCCC [trans-2-octene] [listing 1 of 2 here]
21 | -88 °C | C/C=C/CCCCC [trans-2-octene] [listing 2 of 2 here]

Row | melting point | Compound
22 | -136 °C | C/C=C/CC [trans-2-pentene]
23 | 180 °C | O=C(O)/C=C/c1cccc(Br)c1 [trans-3-bromocinnamic acid]
24 | 54 °C | CCCCC[C@H]1CC[C@H](C(=O)O)CC1 [trans-4-n-pentylcyclohexanecarboxylic acid]
25 | -94 °C | CCC/C=C/CCC [trans-4-octene]
26 | 135 °C | O=C(O)/C=C/c1ccccc1 [trans-cinnamic acid]
27 | -34 °C | CCCCB(CCCC)CCCC [tri-n-butylborane]
28 | 316 °C | Nc1nc(N)c2nc(-c3ccccc3)c(N)nc2n1 [triamterene]
29 | -170 °C | CCO[SiH](OCC)OCC [triethoxysilane]
30 | -59 °C | CC(C)OB(OC(C)C)OC(C)C [triisopropyl borate]
31 | 17 °C | CC(C)(C)C#N [trimethylacetonitrile]
32 | 45 °C | CC(CN(C)C)CN1c2ccccc2CCc2ccccc21 (centres undefined) [trimipramine]
33 | 127 °C | c1ccc(N(c2ccccc2)c2ccccc2)cc1 [triphenylamine]
34 | 147 °C | c1ccc(B(c2ccccc2)c2ccccc2)cc1 [triphenylborane]
35 | 199 °C and 196 °C and 197 °C | c1ccc2c(c1)c1ccccc1c1ccccc21 [triphenylene]
36 | 163 °C | OC(c1ccccc1)(c1ccccc1)c1ccccc1 [triphenylmethanol] [listing 1 of 2 here]
37 | 163 °C | OC(c1ccccc1)(c1ccccc1)c1ccccc1 [triphenylmethanol] [listing 2 of 2 here]
38 | 43 °C | c1ccc([SiH](c2ccccc2)c2ccccc2)cc1 [triphenylsilane]
39 | 53 °C | O=c1cccccc1O [tropolone]
40 | 330 °C | O=c1cc[nH]c(=O)[nH]1 [uracil]
41 | 82 °C | COc1cc(C=O)ccc1O [vanillin]
42 | 178 °C | Cc1cc(CC(=O)O)n(C)c1C(=O)c1ccc(Cl)cc1 [zomepirac]

The remaining lines, values behind:

Row | Compound | melting point
43 | CC(C)(C)OOC(=O)c1ccccc1 [tert-Butyl benzenecarboperoxoate] | 8 °C
44 | O=C5\C=C4/C(C3CCC2(C(CCC2OC(=O)Cc1ccccc1)C3CC4)C)(C)CC5 (centres undefined) [testosterone phenylacetate] | 129 °C
45 | O=C5\C=C3/[C@]([C@H]2CC[C@@]4([C@@H](OC(=O)CCc1ccccc1)CC[C@H]4[C@@H]2CC3)C)(C)CC5 [testosterone phenylpropionate] | 116 °C
46 | C[C@]12CC[C@H]3[C@@H](CCC4=CC(=O)CC[C@@]43C)[C@@H]1CC[C@@H]2O [testosterone] | 154 °C
47 | ClC(Cl)=C(Cl)Cl [tetrachloroethylene] | -22 °C
48 | ClC(Cl)(Cl)Cl [tetrachloromethane] | -23 °C
49 | O=C1OC(=O)c2c(Cl)c(Cl)c(Cl)c(Cl)c21 [tetrachlorophthalic anhydride] | 256 °C
50 | CCCCCCCCCCCCCC=O [tetradecyl_aldehyde] | 24 °C
51 | O=C1CCSCC1 [tetrahydro-4h-thiopyran-4-one] | 62 °C
52 | CN(C)C(=S)SSC(=S)N(C)C [tetramethylthiuram disulfide] | 150 °C
53 | C=CCC1(C2C=CCCC2)C(=O)NC(=S)NC1=O (centres undefined) [thialbarbital] | 148 °C
54 | c1ccsc1 [thiophene] | -38 °C (3×) and -38.2 °C and -38.3 °C (2×)
55 | Cc1cc(O)c(C(C)C)cc1C1(c2cc(C(C)C)c(O)cc2C)OC(=O)c2ccccc21 [thymolphthalein] | 252 °C
56 | COc1ccc2c(C(=S)N(C)CC(=O)O)cccc2c1C(F)(F)F [tolrestat] | 164 °C
57 | Cc1ccc(N=C=O)cc1N=C=O [toluene-2,4-diisocyanate] | 21 °C
58 | Cc1ccccc1 [toluene] | -93 °C

Row | Compound | melting point
59 | O=C(O)/C=C/c1ccccc1O [trans-2-hydroxycinnamic acid] | 217 °C
60 | C1CC[C@H]2CCCC[C@@H]2C1 [trans-decahydronaphthalene] | -32 °C
61 | CCCN(CCC)CCC [tri-n-propylamine] | -93 °C
62 | O=C(O)C(Br)(Br)Br [tribromoacetic acid] | 132 °C
63 | O=C(Cl)C(Cl)(Cl)Cl [trichloroacetyl chloride] [listing 1 of 2 here] | -146 °C
64 | O=C(Cl)C(Cl)(Cl)Cl [trichloroacetyl chloride] [listing 2 of 2 here] | -56.9 °C and -57 °C
65 | CCCCCCCCCCCCC=O [tridecanal] | 15 °C
66 | OC(CCN1CCCCC1)(c1ccccc1)C1CCCCC1 (centres undefined) [trihexyphenidyl] | 115 °C
67 | COc1cc(Cc2cnc(N)nc2N)cc(OC)c1OC [trimethoprim] | 200 °C
68 | CP(C)(C)=O [trimethylphosphine oxide] | 141 °C
69 | c1csc(P(c2cccs2)c2cccs2)c1 [tris(2-thienyl)phosphine] | 29 °C
70 | C[Si](C)(C)OB(O[Si](C)(C)C)O[Si](C)(C)C [tris(trimethylsilyl) borate] | -35 °C
71 | CN1[C@@H]2CC[C@H]1C[C@@H](O)C2 [tropine] | 63 °C
72 | CCCCCCCCCCC=O [undecanal] | 0 °C and -2 °C
73 | C=COC(C)=O [vinyl acetate] | -100 °C
74 | O=C(O)Cc1nn(Cc2nc3cc(C(F)(F)F)ccc3s2)c(=O)c2ccccc12 [zopolrestat] | 197 °C

From the Bradley open melting point set (2014)
